Test results taken from patent publication US9802895B2, “Indole and benzimidazolecarboxamides as insecticides and acaricides” (BAYER CROPSCIENCE AKTIENGESELLSCHAFT, priority 2014, dated 2017).

Tests used:
[1] = tested on: engorged adult female cattle ticks (Boophilus microplus); test: Boophilus microplus injection test (BOOPMI inj); assay type: in vivo; settings: assessed after 7 days
Experimental: Boophilus microplus Injection Test (BOOPMI inj) Solvent: dimethyl sulphoxide To produce a suitable active compound formulation, 10 mg of active compound are mixed with 0.5 ml of solvent and the concentrate is diluted with solvent to the desired concentration. 1 μl of the active compound solution is injected into the abdomen of 5 engorged adult female cattle ticks (Boophilus microplus). The animals are transferred into dishes and kept in a climate-controlled room. The efficacy is assessed after 7 days by laying of fertile eggs. Eggs which are not visibly fertile are stored in a climate-controlled cabinet until the larvae hatch after about 42 days. An efficacy of 100% means that none of the ticks has laid any fertile eggs; 0% means that all the eggs are fertile.

[2] = tested on: adult cat fleas (Ctenocephalides felis); test: Ctenocephalides felis oral test (CTECFE); assay type: in vivo; settings: 100 ppm, oral in cattle blood, after 2 days
Experimental: Ctenocephalides felis-Oral Test ([…]) Solvent: dimethyl sulphoxide To produce a suitable active compound formulation, 10 mg of active compound are mixed with 0.5 ml of dimethyl sulphoxide. Dilution with citrated cattle blood gives the desired concentration. About 20 unfed adult cat fleas (Ctenocephalides felis) are placed into a chamber which is closed at the top and bottom with gauze. A metal cylinder whose bottom end is closed with parafilm is placed onto the chamber. The cylinder contains the blood/active compound preparation, which can be imbibed by the fleas through the parafilm membrane. After 2 days, the kill in % is determined 100% means that all of the fleas have been killed; 0% means that none of the fleas have been killed.

[3] = tested on: L1 larvae of the Australian sheep blowfly (Lucilia cuprina); test: Lucilia cuprina test (LUCICU); assay type: in vivo; settings: 100 ppm, after 2 days
Experimental: Lucilia cuprina Test (LUCICU) Solvent: dimethyl sulphoxide To produce a suitable active compound formulation, 10 mg of active compound are mixed with 0.5 ml of dimethyl sulphoxide, and the concentrate is diluted with water to the desired concentration. About 20 L1 larvae of the Australian sheep blowfly (Lucilia cuprina) are transferred into a test vessel containing minced horsemeat and the active compound preparation of the desired concentration. After 2 days, the kill in % is determined 100% means that all the larvae have been killed; 0% means that none of the larvae have been killed.

[4] = tested on: adult houseflies (Musca domestica); test: Musca domestica test (MUSCDO); assay type: in vivo; settings: 100 ppm, after 2 days
Experimental: Musca domestica Test (MUSCDO) Solvent: dimethyl sulphoxide To produce a suitable active compound formulation, 10 mg of active compound are mixed with 0.5 ml of dimethyl sulphoxide, and the concentrate is diluted with water to the desired concentration. Vessels containing a sponge treated with sugar solution and the active compound preparation of the desired concentration are populated with 10 adult houseflies (Musca domestica). After 2 days, the kill in % is determined. 100% means that all of the flies have been killed; 0% means that none of the flies have been killed.

[5] = tested on: larvae of the mustard beetle (Phaedon cochleariae); test: Phaedon cochleariae spray test (PHAECO); assay type: in vivo; settings: 100 g/ha, after 7 days
Experimental: Phaedon cochleariae—Spray Test (PHAECO)
(§1) Solvent: 78.0 parts by weight of acetone • • 1.5 parts by weight of dimethylformamide
(§2) Emulsifier: alkylaryl polyglycol ether
(§3) To produce a suitable active compound formulation, 1 part by weight of active compound is dissolved using the specified parts by weight of solvent and made up with water containing an emulsifier concentration of 1000 ppm until the desired concentration is attained. To produce further test concentrations, the preparation is diluted with emulsifier-containing water.
After 7 days, the efficacy in % is determined. 100% means that all the beetle larvae have been killed; 0% means that no beetle larvae have been killed.

[6] = tested on: caterpillars of the armyworm (Spodoptera frugiperda); test: Spodoptera frugiperda spray test (SPODFR); assay type: in vivo; settings: for efficacy: 100 g/ha, spray, after 7 days
Experimental: Spodoptera frugiperda—Spray Test (SPODFR) Solvent: 78.0 parts by weight of acetone • • 1.5 parts by weight of dimethylformamide Emulsifier: alkylaryl polyglycol ether To produce a suitable active compound formulation, 1 part by weight of active compound is dissolved using the specified parts by weight of solvent and made up with water containing an emulsifier concentration of 1000 ppm until the desired concentration is attained. To produce further test concentrations, the preparation is diluted with emulsifier-containing water. Leaf discs of maize (Zea mays) are sprayed with an active compound formulation of the desired concentration and, after drying, populated with caterpillars of the armyworm (Spodoptera frugiperda). After 7 days, the efficacy in % is determined 100% means that all the caterpillars have been killed; 0% means that no caterpillars have been killed. Spodoptera frugiperda—Spray Test (SPODFR) Solvent: 78.0 parts by weight of acetone • • 1.5 parts by weight of dimethylformamide Emulsifier: alkylaryl polyglycol ether To produce a suitable active compound formulation, 1 part by weight of active compound is dissolved using the specified parts by weight of solvent and made up with water containing an emulsifier concentration of 1000 ppm until the desired concentration is attained. To produce further test concentrations, the preparation is diluted with emulsifier-containing water. Leaf discs of maize (Zea mays) are sprayed with an active compound formulation of the desired concentration and, after drying, populated with caterpillars of the armyworm (Spodoptera frugiperda). After the desired period of time, the efficacy in % is determined. 100% means that all the caterpillars have been killed; 0% means that no caterpillars have been killed.

[7] = tested on: greenhouse red spider mite (Tetranychus urticae); test: Tetranychus urticae spray test, OP-resistant (TETRUR); assay type: in vivo; settings: for efficacy: 100 g/ha, spray, after 6 days
Experimental: Tetranychus urticae—Spray Test, OP-Resistant (TETRUR)
as §1, §2, §3
Discs of bean leaves (Phaseolus vulgaris) infested by all stages of the greenhouse red spider mite (Tetranychus urticae) are sprayed with an active compound formulation of the desired concentration.
After 6 days, the efficacy in % is determined 100% means that all the spider mites have been killed; 0% means that none of the spider mites have been killed.
Tetranychus urticae—Spray Test; OP-Resistant (TETRUR)
After the desired period of time, the efficacy in % is determined 100% means that all the spider mites have been killed; 0% means that none of the spider mites have been killed.

[8] = tested on: mixed thrips population (Frankliniella occidentalis); test: Frankliniella occidentalis spray test (FRANOC); assay type: in vivo; settings: 7 dat
Experimental: Frankliniella occidentalis—Spray Test (FRANOC) Solvent: 7 parts by weight of dimethylformamide Emulsifier: alkylaryl polyglycol ether To produce a suitable active compound formulation, 1 part by weight of active compound is dissolved using the specified parts by weight of solvent and made up with water containing an emulsifier concentration of 1000 ppm until the desired concentration is attained. To produce further test concentrations, the preparation is diluted with emulsifier-containing water. If the addition of ammonium salts or/and penetrants is required, these are each added in a concentration of 1000 ppm to the formulation solution. Bush bean plants (Phaseolus vulgaris) are sprayed with an active compound preparation of the desired concentration. After drying, the treated plants are infected with a mixed thrips population (Frankliniella occidentalis). After the desired period of time, the plant-protective efficacy in % is determined. 100% means that no damage is evident; 0% means that the damage to the treated plant corresponds to that of the untreated control.

[9] = tested on: L2 larvae of the banded cucumber beetle (Diabrotica balteata); test: Diabrotica balteata drench test (DIABBA); assay type: in vivo; settings: 8 dat
Experimental: Diabrotica balteata—Drench Test (DIABBA) Solvent: 7 parts by weight of dimethylformamide Emulsifier: 2 parts by weight of alkylaryl polyglycol ether To produce a suitable active compound formulation, 1 part by weight of active compound is mixed with the specified amounts of solvent and emulsifier, and the concentrate is diluted with water to the desired concentration, it being necessary to include the volume of soil which is drenched in the calculation. It should be ensured that a concentration of 40 ppm of emulsifier in the soil is not exceeded. To produce further test concentrations, water is used for dilution. […] After one day, 25 L2 larvae of the banded cucumber beetle (Diabrotica balteata) are added. After 8 days, the efficacy in % is determined 100% means that all 5 plants have germinated and grown; 0% means that none of the plants has emerged.

[10] = log P by HPLC (EEC directive 79/831 Annex V.A8); assay type: physicochemical; settings: HPLC, reversed-phase column (C18), 43° C., acidic range pH 2.7
Experimental: a) The determination of the M^+ by LC-MS in the acidic range is effected at pH 2.7, acetonitrile (contains 0.1% formic acid) and water as eluents; linear gradient from 10% acetonitrile to 95% acetonitrile, instrument: Agilent 1100 LC system, Agilent MSD system, HTS PAL. The log P values reported in the tables and Preparation Examples above were determined in accordance with EEC directive 79/831 Annex V.A8 by HPLC (High Performance Liquid Chromatography) using a reversed-phase column (C18). Temperature 43° C. The calibration is effected with unbranched alkan-2-ones (having 3 to 16 carbon atoms), for which the logP values are known.

[11] = tested on: green peach aphid (Myzus persicae); test: Myzus persicae spray test; assay type: in vivo; settings: 100 g/ha, after 6 days
Experimental: Myzus persicae—Spray Test Solvent: 78 parts by weight of acetone • • 1.5 parts by weight of dimethylformamide Emulsifier: alkylaryl polyglycol ether To produce a suitable appropriate active compound formulation, 1 part by weight of active compound is dissolved using the specified parts by weight of solvent and made up with water containing an emulsifier concentration of 1000 ppm until the desired concentration is attained. To produce further test concentrations, the preparation is diluted with emulsifier-containing water. Discs of Chinese cabbage leaves (Brassica pekinensis) infested by all stages of the green peach aphid (Myzus persicae) are sprayed with an active compound formulation of the desired concentration. After 6 days, the efficacy in % is determined. 100% means that all the aphids have been killed; 0% means that none of the aphids have been killed.

Structure (SMILES) | efficacy (laying of fertile eggs) [1] [%] | efficacy (kill in %) [2] [%] | efficacy (kill in %) [3] [%] | efficacy (kill in %) [4] [%] | efficacy [5] [%] | efficacy [6] [%] | efficacy [7] [%] | log P [10] | efficacy [11] [%] | other results
Cn1c(C(=O)NC(c2ccc(Cl)c(C(F)(F)F)c2)C(F)(F)F)cc2cc(C(=O)NC3(C(N)=S)CC3)c(Cl)cc21 (stereo not drawn) [I-16] | 100 | 100 | 100 | 100 | 100 | 100 | 100 | 3.70 |  | % efficacy (plant-protective) ([8]; 0.8 ppm): 90%; % efficacy (plant-protective) ([8]; 4 ppm): 90%; % efficacy ([9]; 4 ppm): 50%; % efficacy ([9]; 20 ppm): 100%
Cn1c(C(=O)NC(c2cc(Cl)c(Cl)c(Cl)c2)C(F)(F)F)cc2cc(C(=O)NC3(C(N)=S)CC3)c(Cl)cc21 (stereo not drawn) [I-20] | 100 | 100 | 100 | 100 | 100 | 100 | 100 | 4.07 | 90 | % efficacy ([6]; SPODFR, 0.8 g/ha, 7 dat): 100%; % efficacy ([6]; SPODFR, 4 g/ha, 7 dat): 100%
CCn1c(C(=O)NC(c2cc(Cl)c(Cl)c(F)c2F)C(F)(F)F)cc2cc(C(=O)NC3(C(N)=S)CC3)c(Cl)cc21 (stereo not drawn) [I-29] | 100 | 100 | 100 | 100 | 100 | 100 | 90 | 4.27 | 100 | 
CCn1c(C(=O)NC(c2ccc(F)c(C(F)(F)F)c2)C(F)F)cc2cc(C(=O)NC3(C(N)=S)CC3)c(Cl)cc21 (stereo not drawn) [I-32] | 100 | 100 | 100 |  | 100 | 100 | 100 | 3.41 | 90 | 
CCn1c(C(=O)NC(c2cccc(C(F)(F)F)c2)C(F)(F)F)cc2cc(C(=O)NC3(C(N)=S)CC3)c(Cl)cc21 (stereo not drawn) [reference compound] |  |  |  |  |  |  |  |  |  | Emax at 0.8 g/ha ([6]; Spodoptera frugiperda, 168 h, SPODFR, 0.8 g/ha, 7 dat, read-out: % efficacy): 33%; % efficacy (mortality) at a single application rate at 4 g/ha ([6]; Spodoptera frugiperda, 168 h, SPODFR, 4 g/ha, 7 dat): 100%; Emax at 4 g/ha ([7]; Tetranychus urticae, 144 h, TETRUR, 4 g/ha, 6 dat, read-out: % efficacy): 70%; Emax at 20 g/ha ([7]; Tetranychus urticae, 144 h, TETRUR, 20 g/ha, 6 dat, read-out: % efficacy): 100%; Emax at 0.8 ppm ([8]; Thrips, 168 h, 0.8 ppm, read-out: % efficacy (plant-protective)): 60%; Emax at 4 ppm ([8]; Thrips, 168 h, 4 ppm, read-out: % efficacy (plant-protective)): 98%; Emax at 4 ppm ([9]; Diabrotica balteata, soil, 192 h, 4 ppm, read-out: % efficacy): 70%; Emax at 20 ppm ([9]; Diabrotica balteata, soil, 192 h, 20 ppm, read-out: % efficacy): 60%
